Results published in ChEMBL document CHEMBL5154709, “Tetrazole derivatives bearing benzodiazepine moiety-synthesis and action mode against virulence of Candida albicans” (Eur J Med Chem, 2022).
The source made the active and inactive calls. The calls are words filed in the database; no cut-off is given here.

What was measured:
Candida albicans [1] = assay: Effect on HSP90 expression in Candida albicans BWP17 assessed as decrease in relative expression of HSP90 gene level at 2 ug/ml incubated for 18 hrs by RT-PCR analysis; type: functional; conditions: dose 2.0 µg/ml
Candida albicans [2] = assay: Effect on HSP90 expression in Candida albicans cnb1delta/cnb1delta mutant assessed as fold increase in relative expression of HSP90 gene level at 2 ug/ml incubated for 18 hrs in presence of calcium chloride by RT-PCR analysis; type: functional; conditions: dose 2.0 µg/ml
Candida albicans [3] = assay: Antifungal activity against Candida albicans SC5314 assessed as inhibition of fungal growth at 2 ug/ml incubated for 18 hrs by M27-A3 based microdilution method relative to control; type: functional
Candida albicans [4] = assay: Antifungal activity against Candida albicans SC5314 assessed as inhibition of fungal growth at 8 ug/ml incubated for 48 hrs by M27-A3 based microdilution method relative to control; type: functional
Candida albicans [5] = assay: Antifungal activity against Candida albicans SC5314 assessed as inhibition of fungal growth at 1 ug/ml incubated for 48 hrs by M27-A3 based microdilution method relative to control; type: functional
Candida albicans [6] = assay: Induction of macrophage-mediated Candida albicans SC5314 phagocytosis assessed as change in hyphae properties at 16 ug/ml incubated for 18 hrs in presence of mouse RAW264.7 macrophages by PI/Acridine orange double staining based confocal laser scanning microscopic analysis; type: functional; conditions: dose 16.0 µg/ml
Candida albicans [7] = assay: Antifungal against Candida albicans cnb1delta/cnb1delta mutant biofilm assessed as oxidative stress by measuring appearance of spherical cells at 16 ug/ml incubated for 18 hrs by PI/acridine orange double staining based confocal laser scanning microscopic analysis; type: functional, organism-based; conditions: dose 16.0 µg/ml
Candida albicans [8] = assay: Antifungal against Candida albicans cnb1delta/cnb1delta mutant biofilm assessed as apoptotic cells by measuring lysosomal membrane permeabilization at 16 ug/ml incubated for 18 hrs by PI/acridine orange double staining based confocal laser scanning microscopic analysis; type: functional, organism-based; conditions: dose 16.0 µg/ml
Candida albicans [9] = assay: Antifungal activity against Candida albicans assessed as inhibition of fungal growth measured after 48 hrs in presence of exogenous ergosterol by M27-A3 based broth microdilution; type: functional
Candida albicans [10] = assay: Antifungal activity against Candida albicans SC5314 assessed as inhibition of fungal growth at 0.03125 ug/ml incubated for 48 hrs by M27-A3 based microdilution method relative to control; type: functional
Candida albicans [11] = assay: Antifungal activity against Candida albicans SC5314 assessed as inhibition of fungal growth at 0.0625 ug/ml incubated for 18 hrs by M27-A3 based microdilution method relative to control; type: functional
Candida albicans [12] = assay: Downregulation of HSP90 gene expression in Candida albicans cnb1delta/cnb1delta mutant at 2 ug/ml incubated for 6 hrs in presence of calcium chloride by RT-PCR analysis; type: functional; conditions: dose 2.0 µg/ml
Candida albicans [13] = assay: Antifungal activity against Candida albicans SC5314 assessed as inhibition of fungal growth at 4 ug/ml incubated for 48 hrs by M27-A3 based microdilution method relative to control; type: functional
Candida albicans [14] = assay: Induction of reactive oxygen species generation in Candida albicans CNB1/cnb1delta mutant assessed as increase in ROS level at 16 ug/ml incubated for 18 hrs by DCFH-DA staining based flow cytometric analysis (reference value: 3.8+/- 4.2%); type: functional; conditions: dose 16 µg/ml
[15] = Toxicity in Galleria mellonella larvae assessed as change in morphology at 16 ug/ml measured after 5 days by Hematoxylin and eosin staining; conditions: 120 h, dose 16 µg/ml, time 5 day
Candida albicans [16] = assay: Antifungal activity against Candida albicans SC5314 assessed as inhibition of fungal growth at 0.25 ug/ml incubated for 18 hrs by M27-A3 based microdilution method relative to control; type: functional
Candida albicans [17] = assay: Antifungal activity against Candida albicans SC5314 assessed as inhibition of fungal growth at 0.0625 ug/ml incubated for 48 hrs by M27-A3 based microdilution method relative to control; type: functional
Candida albicans [18] = assay: Induction of reactive oxygen species generation in Candida albicans BWP17 assessed as increase in ROS level at 16 ug/ml incubated for 18 hrs by DCFH-DA staining based flow cytometric analysis (reference value: 7.2+/- 0.2%); type: functional; conditions: dose 16 µg/ml
Candida albicans [19] = assay: Antifungal against Candida albicans cnb1delta/cnb1delta mutant biofilm assessed as increase cell membrane permeability at 16 ug/ml incubated for 18 hrs by Rho123 and Hoechst 33342 double staining based confocal laser scanning microscopic analysis; type: functional, organism-based; conditions: dose 16.0 µg/ml
Candida albicans [20] = assay: Induction of apoptosis in Candida albicans SC5314 protoplast cells assessed as necrotic cells at 16 ug/ml incubated for 18 hrs by PI/Annexin V staining based flow cytometry assay; type: functional; conditions: dose 16 µg/ml

O=C1CN=C(c2ccccc2Br)c2cc(F)ccc2N1CCCn1nnc(-c2ccccc2Cl)n1
Activity (Candida albicans [1]): Active
fold change (FC) (Candida albicans [2]): 4
inhibition at 2 µg/mL (Candida albicans [3]): 100%
inhibition at 8 µg/mL (Candida albicans [4]): 99.1%
inhibition at 1 µg/mL (Candida albicans [5]): 99.2%
Activity (Candida albicans [6]): Active
Activity (Candida albicans [7]): Active
Activity (Candida albicans [8]): Active
MIC (Candida albicans [9]): 2.56 µg/mL
inhibition at 0.03125 µg/mL (Candida albicans [10]): 100%
inhibition at 0.0625 µg/mL (Candida albicans [11]): 99.2%
Activity (Candida albicans [12]): Active
inhibition at 4 µg/mL (Candida albicans [13]): 99.3%
Activity (Candida albicans [14]): 4.9%
Activity [15]: Non-Toxic
inhibition at 0.25 µg/mL (Candida albicans [16]): 100%
inhibition at 0.0625 µg/mL (Candida albicans [17]): 99.4%
Activity (Candida albicans [18]): 3.7%
Activity (Candida albicans [19]): Active
Activity (Candida albicans [20]): 78.5%
